From ChEMBL document CHEMBL1909046, “DrugMatrix in vitro pharmacology data”

What was measured:
[1] = DRUGMATRIX: Sodium/nucleoside co-transporter radioligand binding (ligand: nitrobenzylthioinosine); assay type: cell membranes, Cavia porcellus, Dunkin-Hartley, Cerebral cortex, Membrane; details: Not Active = under 50% inhibition at 10 µM
[2] = DRUGMATRIX: Tumor Necrosis Factor (TNF), Non-Selective radioligand binding (ligand: [125I] TNF-alpha); assay type: cell membranes, Membrane; details: u-937; Not Active = under 50% inhibition at 10 µM
Vasopressin V1a receptor = Vasopressin V1a receptor (Homo sapiens, UniProt P37288); assay type: cell membranes, Membrane; details: hek293; further: in other assays of this panel Not Active means under 50% inhibition at 10 µM
[3] = biological target: T1, C-X-C chemokine receptor type 1 (Homo sapiens, UniProt P25024); further: in other assays of this panel Not Active means under 50% inhibition at 10 µM
T1 sequence (P25024 whole entry): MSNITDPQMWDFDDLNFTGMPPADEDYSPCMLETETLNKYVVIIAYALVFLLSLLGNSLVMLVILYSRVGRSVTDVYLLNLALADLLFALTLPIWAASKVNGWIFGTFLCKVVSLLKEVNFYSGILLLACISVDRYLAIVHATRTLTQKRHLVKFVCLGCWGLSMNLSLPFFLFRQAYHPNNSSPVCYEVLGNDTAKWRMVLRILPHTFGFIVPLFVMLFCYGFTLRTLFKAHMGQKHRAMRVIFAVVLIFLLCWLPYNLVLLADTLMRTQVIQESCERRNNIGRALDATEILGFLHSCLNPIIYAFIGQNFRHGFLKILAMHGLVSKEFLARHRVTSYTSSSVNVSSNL

Endothelin-1 receptor = biological target: T2, Endothelin-1 receptor (Homo sapiens, UniProt P25101); assay type: cell membranes, Membrane; details: cho-k1; further: in other assays of this panel Not Active means under 50% inhibition at 10 µM
T2 sequence (P25101 whole entry): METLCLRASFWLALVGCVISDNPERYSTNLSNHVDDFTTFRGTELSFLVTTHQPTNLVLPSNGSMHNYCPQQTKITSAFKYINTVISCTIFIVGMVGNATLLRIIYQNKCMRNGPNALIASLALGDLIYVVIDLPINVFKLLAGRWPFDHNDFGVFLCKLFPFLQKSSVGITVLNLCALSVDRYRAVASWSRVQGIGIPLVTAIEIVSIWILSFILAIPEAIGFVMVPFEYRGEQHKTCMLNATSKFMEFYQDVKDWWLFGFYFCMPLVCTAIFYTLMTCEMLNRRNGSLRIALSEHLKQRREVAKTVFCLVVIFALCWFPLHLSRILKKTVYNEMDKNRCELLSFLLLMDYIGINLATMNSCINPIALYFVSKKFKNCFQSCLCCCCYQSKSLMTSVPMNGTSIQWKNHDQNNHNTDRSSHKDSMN

[4] = DRUGMATRIX: Glutamate, Kainate radioligand binding (ligand: [3H] Kainic acid); assay type: cell membranes, Rattus norvegicus, Wistar, Brain, Membrane; details: Not Active = under 50% inhibition at 10 µM
[5] = DRUGMATRIX: Glutamate, NMDA, Phencyclidine radioligand binding (ligand: [3H] TCP); assay type: cell membranes, Rattus norvegicus, Wistar, Cerebral cortex, Membrane; details: Not Active = under 50% inhibition at 10 µM
[6] = DRUGMATRIX: Platelet-Derived Growth Factor (PDGF) radioligand binding (ligand: [125I] PDGF); assay type: cell-based; details: nih3t3; Not Active = under 50% inhibition at 10 µM
[7] = biological target: T3, Receptor-type tyrosine-protein phosphatase C (Homo sapiens, UniProt P08575); set-up: species or system Escherichia coli;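 further: inhibition of CD45 enzyme activity measured using DiFMUP as substrate; in other assays of this panel Not Active means under 50% inhibition at 10 µM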
T3 sequence (P08575 whole entry): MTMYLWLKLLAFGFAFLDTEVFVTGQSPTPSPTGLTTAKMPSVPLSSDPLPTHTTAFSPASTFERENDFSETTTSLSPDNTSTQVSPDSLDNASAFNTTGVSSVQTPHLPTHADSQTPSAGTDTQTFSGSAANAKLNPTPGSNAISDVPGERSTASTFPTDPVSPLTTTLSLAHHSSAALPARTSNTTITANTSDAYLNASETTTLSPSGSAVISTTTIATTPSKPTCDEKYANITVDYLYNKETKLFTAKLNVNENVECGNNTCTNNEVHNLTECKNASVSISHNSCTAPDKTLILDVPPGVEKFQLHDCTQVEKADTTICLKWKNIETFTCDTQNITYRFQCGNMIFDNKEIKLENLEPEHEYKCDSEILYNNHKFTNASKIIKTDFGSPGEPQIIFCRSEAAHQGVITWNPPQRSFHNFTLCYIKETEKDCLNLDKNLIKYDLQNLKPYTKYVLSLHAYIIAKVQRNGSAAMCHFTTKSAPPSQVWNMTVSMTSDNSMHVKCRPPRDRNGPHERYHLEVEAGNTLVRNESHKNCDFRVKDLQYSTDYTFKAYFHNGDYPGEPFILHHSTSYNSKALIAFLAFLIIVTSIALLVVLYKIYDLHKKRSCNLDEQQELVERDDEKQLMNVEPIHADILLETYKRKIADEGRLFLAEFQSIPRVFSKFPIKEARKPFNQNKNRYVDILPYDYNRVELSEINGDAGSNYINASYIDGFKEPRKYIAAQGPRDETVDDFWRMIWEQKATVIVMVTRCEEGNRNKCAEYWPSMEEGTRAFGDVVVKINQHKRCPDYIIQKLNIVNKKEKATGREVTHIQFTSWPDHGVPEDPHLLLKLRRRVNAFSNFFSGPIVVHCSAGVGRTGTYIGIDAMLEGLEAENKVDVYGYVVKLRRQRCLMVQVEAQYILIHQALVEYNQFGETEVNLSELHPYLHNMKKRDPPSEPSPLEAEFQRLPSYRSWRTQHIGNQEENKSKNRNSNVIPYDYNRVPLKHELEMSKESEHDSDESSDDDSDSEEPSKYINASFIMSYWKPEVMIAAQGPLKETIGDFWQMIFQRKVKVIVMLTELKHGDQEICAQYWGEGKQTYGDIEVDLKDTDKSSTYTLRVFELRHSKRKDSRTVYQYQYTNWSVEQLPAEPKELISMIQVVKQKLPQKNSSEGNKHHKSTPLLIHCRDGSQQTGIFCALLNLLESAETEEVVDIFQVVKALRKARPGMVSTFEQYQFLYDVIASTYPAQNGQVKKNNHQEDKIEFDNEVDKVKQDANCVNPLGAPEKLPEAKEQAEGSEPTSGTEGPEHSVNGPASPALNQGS

Chain of Vasopressin V1a receptor (P37288 whole entry): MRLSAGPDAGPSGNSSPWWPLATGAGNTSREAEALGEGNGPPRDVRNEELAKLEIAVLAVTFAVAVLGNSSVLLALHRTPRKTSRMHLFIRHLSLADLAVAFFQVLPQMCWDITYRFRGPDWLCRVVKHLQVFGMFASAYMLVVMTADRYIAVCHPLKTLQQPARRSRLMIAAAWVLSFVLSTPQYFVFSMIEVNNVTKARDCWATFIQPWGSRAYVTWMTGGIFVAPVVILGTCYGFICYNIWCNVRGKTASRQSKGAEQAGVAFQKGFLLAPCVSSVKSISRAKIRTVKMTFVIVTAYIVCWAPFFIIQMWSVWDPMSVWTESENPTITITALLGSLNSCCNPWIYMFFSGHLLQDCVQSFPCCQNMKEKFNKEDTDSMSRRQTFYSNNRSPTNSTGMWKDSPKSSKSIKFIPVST

O=C(O)CCc1nc(-c2ccccc2)c(-c2ccccc2)o1 [OXAPROZIN]
Not Active: IC50 [1] | Ki [1] | IC50 [2] | Ki [2] | IC50 (Vasopressin V1a receptor) | IC50 [3] | IC50 (Endothelin-1 receptor) | IC50 [4] | Ki [4] | IC50 [5] | Ki [5] | IC50 [6] | Ki [6] | IC50 [7]

NCC(CC(=O)O)c1ccc(Cl)cc1 (stereo unspecified) [BACLOFEN]
Not Active: IC50 [1] | Ki [1] | IC50 [2] | Ki [2] | IC50 (Vasopressin V1a receptor) | IC50 [3] | IC50 (Endothelin-1 receptor) | IC50 [4] | Ki [4] | IC50 [5] | Ki [5] | IC50 [6] | Ki [6] | IC50 [7]

CC[C@H]1OC(=O)[C@H](C)[C@@H](O[C@H]2C[C@@](C)(OC)[C@@H](O)[C@H](C)O2)[C@H](C)[C@@H](O[C@@H]2O[C@H](C)C[C@H](N(C)C)[C@H]2O)[C@](C)(O)C[C@@H](C)C(=O)[C@H](C)[C@@H](O)[C@]1(C)O [ERYTHROMYCIN]
Not Active: IC50 [1] | Ki [1] | IC50 [2] | Ki [2] | IC50 (Vasopressin V1a receptor) | IC50 [3] | IC50 (Endothelin-1 receptor) | IC50 [4] | Ki [4] | IC50 [5] | Ki [5] | IC50 [6] | Ki [6] | IC50 [7]

C=CCO [ALLYL ALCOHOL]
Not Active: IC50 [1] | Ki [1] | IC50 [2] | Ki [2] | IC50 (Vasopressin V1a receptor) | IC50 [3] | IC50 (Endothelin-1 receptor) | IC50 [4] | Ki [4] | IC50 [5] | Ki [5] | IC50 [6] | Ki [6] | IC50 [7]

COC(=O)C[C@](O)(CCC(C)(C)O)C(=O)O[C@@H]1C(OC)=C[C@]23CCCN2CCc2cc4c(cc2[C@H]13)OCO4 [HARRINGTONINE]
Not Active: IC50 [1] | Ki [1] | IC50 [2] | Ki [2] | IC50 (Vasopressin V1a receptor) | IC50 [3] | IC50 (Endothelin-1 receptor) | IC50 [4] | Ki [4] | IC50 [5] | Ki [5] | IC50 [6] | Ki [6] | IC50 [7]

CHROMIC CHLORIDE
Not Active: IC50 [1] | Ki [1] | IC50 [2] | Ki [2] | IC50 (Vasopressin V1a receptor) | Ki (Vasopressin V1a receptor) | IC50 [3] | Ki [3] | IC50 (Endothelin-1 receptor) | Ki (Endothelin-1 receptor) | IC50 [4] | Ki [4] | IC50 [5] | Ki [5] | IC50 [6] | Ki [6] | IC50 [7] | Ki [7]

C#C[C@]1(O)CC[C@H]2[C@@H]3CCC4=CC(=O)CC[C@@H]4[C@H]3CC[C@@]21C [NORETHINDRONE]
Not Active: IC50 [1] | Ki [1] | IC50 [2] | Ki [2] | IC50 (Vasopressin V1a receptor) | IC50 [3] | IC50 (Endothelin-1 receptor) | IC50 [4] | Ki [4] | IC50 [5] | Ki [5] | IC50 [6] | Ki [6] | IC50 [7]

O=C1CN(/N=C/c2ccc([N+](=O)[O-])o2)C(=O)N1 [NITROFURANTOIN]
Not Active: IC50 [1] | Ki [1] | IC50 [2] | Ki [2] | IC50 (Vasopressin V1a receptor) | IC50 [3] | IC50 (Endothelin-1 receptor) | IC50 [4] | Ki [4] | IC50 [5] | Ki [5] | IC50 [6] | Ki [6] | IC50 [7]

c1ccc2c(c1)Nc1ccccc1S2 [PHENOTHIAZINE]
Not Active: IC50 [1] | Ki [1] | IC50 [2] | Ki [2] | IC50 (Vasopressin V1a receptor) | IC50 [3] | IC50 (Endothelin-1 receptor) | IC50 [4] | Ki [4] | IC50 [5] | Ki [5] | IC50 [6] | Ki [6] | IC50 [7]

CC(CN1c2ccccc2Sc2ccccc21)N(C)C (stereo unspecified) [PROMETHAZINE]
Not Active: IC50 [1] | Ki [1] | IC50 [2] | Ki [2] | IC50 (Vasopressin V1a receptor) | IC50 [3] | IC50 (Endothelin-1 receptor) | IC50 [4] | Ki [4] | IC50 [5] | Ki [5] | IC50 [6] | Ki [6] | IC50 [7]

c1ccc(Cn2ccnc2)cc1
Not Active: IC50 [1] | Ki [1] | IC50 [2] | Ki [2] | IC50 (Vasopressin V1a receptor) | IC50 [3] | IC50 (Endothelin-1 receptor) | IC50 [4] | Ki [4] | IC50 [5] | Ki [5] | IC50 [6] | Ki [6] | IC50 [7]

CC(C)Cn1cnc2c(N)nc3ccccc3c21 [IMIQUIMOD]
Not Active: IC50 [1] | Ki [1] | IC50 [2] | Ki [2] | IC50 (Vasopressin V1a receptor) | IC50 [3] | IC50 (Endothelin-1 receptor) | IC50 [4] | Ki [4] | IC50 [5] | Ki [5] | IC50 [6] | Ki [6] | IC50 [7]

OC[C@H]1OC2C3[C@@H](CO)OC(O[C@H]4[C@H](O)[C@@H](O)[C@@H](O[C@H]5[C@H](O)[C@@H](O)[C@@H](O[C@H]6[C@H](O)[C@@H](O)[C@@H](O[C@H]7[C@H](O)[C@@H](O)[C@@H](O[C@H]8[C@H](O)[C@@H](O)[C@@H](O[C@H]9[C@H](O)[C@@H](O)C(OC1[C@H](O)[C@H]2O)O[C@@H]9CO)O[C@@H]8CO)O[C@@H]7CO)O[C@@H]6CO)O[C@@H]5CO)O[C@@H]4CO)[C@H](O)[C@H]3O
Not Active: IC50 [1] | Ki [1] | IC50 [2] | Ki [2] | IC50 (Vasopressin V1a receptor) | IC50 [3] | IC50 (Endothelin-1 receptor) | IC50 [4] | Ki [4] | IC50 [5] | Ki [5] | IC50 [6] | Ki [6] | IC50 [7]
